Test results as given in patent publication US12286439B2, “Inhibitors of ERK nuclear translocation” (Yeda Research and Development Co. Ltd., priority 2018, dated 2025).
Entries after “also recorded” stand apart in the source; their conditions may differ.

Key:
[1] = test system: PC3 cells; experiment: Dose-response analysis, PC3 cells; type: cell-based; conditions: dose response, 72 hours
Protocol: (§1) FIG. 15A presents dose response curves of compounds C17, D3, D11 and D14 on 8 cancer cells. Five melanoma cell lines (A2185, A2352, A2024, A2058 and LOX-IMVI), HeLa, HCT-116 and PC3 cells were grown in 1% FCS media containing either DMSO (0.1%), EPE peptide (10 μM), or Compounds C17, D3, D11, D14 at the indicated concentrations, for 72 hours. Viable cells were quantified by staining with methylene blue. Data presented as percentage of DMSO control ±SE of triplicates. […] IC50 values were calculated by interpolation in the curves in FIG. 15A. […] Bar graphs represent average viability respect to DMSO control ±SE of triplicates.
(§2) Cell Viability (IC50) Assay:
(§3) Cells were seeded at a density of 4000 cells per well into 96-well plates in complete medium. After 24 hours, medium was replaced by 1% FCS (fetal calf serum) containing appropriate treatments. Fresh medium containing the same agents was replaced every day. After 96 hours, cell viability was assessed using the CellTiter-Glo reagent (Promega; Madison, WI). IC50 values were determined using GraphPad Prism.

[2] = test system: LOX-IMVI melanoma cells; experiment: Dose-response analysis (IC50), LOX-IMVI cells; type: cell-based; conditions: Homo sapiens
Protocol: as §1, §2, §3

[3] = test system: melanoma cells (A2185, A2352, A2024, A2058 and LOX-IMVI); experiment: Dose-response analysis (IC50 assay), melanoma cells; type: cell-based; conditions: calculated by interpolation in the dose response curves
Protocol: as §1, §2, §3

[4] = test system: mammalian cells; conditions: Ananthan et al., Tuberculosis (Edinb) 2009; cited from earlier work
[5] = test system: A2185 and A2352 cells; experiment: Viability assay (methylene blue), two BRAF melanoma cells; type: cell-based; conditions: for cytotoxicity at 1 µM: both melanoma cell lines, read-out: reduction of viability
Protocol: FIGS. 10A, 10B and 10C present data from screening the 20 analogs of Compound Z2 (“C-compounds”) showing three particularly active anti-proliferative compounds. […] A2185 and A2352 cells were grown in 1% FCS containing DMSO (0.1%), EPE peptide, Compound Z56, Compound Z2 or C-compounds (10 μM), for 72 hours. Compounds were categorized according to activity: (1) active, below 40%; (2) moderate activity, below 80%; (3) not active, above 80%. […] A2185 and A2352 cells were grown in 1% FCS containing DMSO (0.1%), EPE peptide (10 μM), compounds Z56, Z2 or selected C-compounds (3 μM), for 72 hours. Empty squares/circles represent individual data points of proliferation. Full squares/circles indicate average proliferation of 2 independent experiments in triplicate±SE. Bold horizontal line defines arbitrary activity threshold of activity below 40%. FIG. 10C presents dose response curves of active C-compounds compounds. A2185 and A2352 were grown in 1% FCS media containing DMSO (0.1%), EPE peptide, Z56, Z2 (10 μM) or compounds C17, C22 and C23 (0.1-10 μM), for 72 hours. […] Cell viability was measured by staining with methylene blue. Data presented as percentage of DMSO control. Bar graphs represent average of 2 independent experiments done in triplicates ±SE.
FIG. 13 presents a graph showing the effect of analogs of Compound C17 (“D-compounds”) on cell viability at a concentration of 10 μM. A2185 and A2352 cells were grown in 1% FCS media containing DMSO (0.1%) EPE peptide (10 μM), Compounds Z56, Z2, C17 (10 μM) as controls, and D-Compounds (10 μM), for 72 hours. Viable cells were measured by staining with methylene blue. Bar graphs represent average of 2 independent experiments done in triplicates. Data presented as percentage of DMSO proliferation ±standard error.
FIG. 14 presents a graph showing the effect of analogs of Compound C17 (“D-compounds”) on cell viability at a concentration of 1 μM. A2185 and A2352 cells were grown in 1% FCS media containing DMSO (0.1%), EPE peptide (10 μM), Compounds Z56, Z2 and C17 (1 and 10 μM) as controls, and D-compounds (1 μM), for 72 hours. Viable cells were measured by staining with methylene blue. Bar graphs represent average of 2 independent experiments done in triplicates. Data presented as percentage of DMSO proliferation ±standard error.
Cells were seeded at low confluence into 24, 48 or 96-well plates in complete medium. After 24 hours, medium was replaced by 1% FCS (fetal calf serum) containing appropriate treatments. Fresh medium containing the same agents was replaced every day. After 72 or 96 hours of treatment, cells were fixed with 4% formaldehyde overnight at 23° C., washed once with 0.1 M borate buffer (pH 8.5) for 10 minutes, and stained with of 1% methylene blue in 0.1 M borate buffer (pH 8.5) for 30 minutes. Excess stain was washed out with distilled water. Color was extracted by adding 0.1 M HCl (3 hours, 23° C.), and absorbance measured at 595 nm in an ELISA reader. For time course experiments, attached cells were fixed and measured at 0, 24, 48, 72 and 96 hours. For dose-response experiments, cells were treated with indicated concentrations of reagent, fixed and stained after 72 hours as above.
The ability of the selected compounds to reduce cell viability of two BRAF melanoma cells (A2185 and A2352) was evaluated. Initially, all compounds were assayed at a relatively high concentration of 10 μM.

[6] = test system: ERK1/2 nuclear translocation; experiment: Determination of ERK1/2 localization by fluorescence microscopy after TPA stimulation; type: cell-based; conditions: for inhibition of stimulated ERK1/2 nuclear translocation: 1 μM, 2 h
Protocol: Determination of Protein Localization by Fluorescence Microscopy:
Indicated cells were seeded on coverslips (coated with 0.001% w/v poly-L-lysine or not, depending on the cell line) at 50% confluency. After the indicated treatment, cells were fixed in 4% paraformaldehyde/PBS for 20 minutes on an ice surface, permeabilized with 0.1% Triton X-100/PBS for 5 minutes at 23° C., then blocked in 2% BSA/PBS for 30 minutes at 23° C. The fixed cells were sequentially incubated with appropriate antibodies (in 2% BSA/PBS, 1.5 hour), washed 3 times with PBS^−/−, and followed by incubation with either Cy-2-conjugated or rhodamine-conjugated secondary antibodies (1:200) and with DAPI ([…]; 1:100) in 2% BSA/PBS for 45 minutes. Slides were analyzed and photographed by a fluorescence microscope (Olympus BX51, ×40). Background correction, and contrast adjustment of raw data images were performed using Photoshop (Adobe, CA, USA).
The effect of Z56 was compared with that of the inhibitory effect of EPE peptide on nuclear translocation of ERK1/2.
The effects of the compounds on ERK1/2 nuclear translocation were evaluated in three cell lines (HeLa cells and two melanoma cell lines, A2185 and A2352), by treating the cells with each compound for two hours, and determining nuclear translocation using fluorescent anti-ERK antibodies, according to procedures described hereinabove.

[7] = test system: anti-tubercular activity (unknown mechanism); conditions: Ananthan et al., Tuberculosis (Edinb) 2009; cited from earlier work
[8] = test system: A2185, A2352, A2024, A2058, LOX-IMVI, HeLa, HCT-116 and PC3 cells; experiment: Dose-response analysis (IC50 assay) in eight cancer cell lines; type: cell-based; conditions: for potency in reducing cell viability relative to Compound C17 / potency in reducing cell viability relative to Compound D14: 72 hours; for potency in reducing cell viability relative to Compound C17: in six of the eight tested cell lines; for potency in reducing cell viability relative to Compound D14: in seven of the eight cell lines
Protocol: as §1
Cell Viability (IC50) Assay: […]

[9] = test system: A2058 cells; experiment: Dose-response analysis, A2058 cells; type: cell-based; conditions: dose response, 72 hours
Protocol: as §1, §2, §3

[10] = TPA 100 nM, 15 minutes, A2185 cells

Structure (SMILES)	viability of PC3 cells [1]	IC50 [2]	IC50 [3]	cytotoxic activity in mammalian cells [4]	cell viability at lower concentration ([5]; 3 μM, 72 hours, 1% FCS)	viability at 10 µM ([5]; 10 μM, 72 hours, 1% FCS, active below 40%, moderate below 80%, not active above 80%, read-out: cell viability (percentage of DMSO control))	cell viability, dose response ([5]; 0.1-10 μM, 72 hours, 1% FCS)	activity in SAR summary of FIGS. 10A-10C (cell viability) ([5]; comparison with Compound Z2 or named analog)	concentration at which activity is already exhibited ([5]; dose response 0.1-10 μM, 72 hours)	IC50 ([5]; potency summarised from viability results of Example 6)	relative potency in blocking nuclear accumulation of ERK1/2 ([6]; 10 μM, 2 hours, A2185 cells)	nuclear accumulation of ERK1/2 upon TPA stimulation ([6]; 10 μM, 2 hours, TPA 100 nM, 15 minutes, A2185 and A2352 cells)	anti-tubercular activity in high-throughput screening [7]	potency in reducing cell viability relative to Compound C17 [8]	IC50 values compared to Compound C17 ([8]; eight cancer cell lines)	selectivity (pattern of effect across cell types compared with EPE peptide) ([8]; eight cancer cell lines)	cytotoxicity at 1 µM ([5]; 72 hours, 1% FCS)	inhibition of stimulated ERK1/2 nuclear translocation [6, 10]	reducing the viability of A2058 cells [9]	potency in reducing cell viability relative to Compound D14 [8]
O=S1(=O)C=CC2ON=C(c3ccc(C(F)(F)F)cc3)C21 (centres unmarked) [Compound C17]	significantly decreased	~20 nM	400 to 1300 nM	without presenting cytotoxic activity	consistently strong anti-viability effect	< 40%	dose dependent manner; also recorded: as potent in reducing the viability of A2352 cells	surprisingly superior to the ester group of Compound Z2	0.3 µM	~1000 nM	more potent than Compounds C22 and C23	inhibited	hit							
O=S1(=O)C=CC2ON=C(c3c[nH]c4ccccc34)C21 (centres unmarked) [Compound D14]	significantly decreased													significantly more potency than Compound C17	significantly lower IC50 values compared to Compound C17	less selective	≤ 90%	convincing activity		
O=S1(=O)C=CC2ON=C(c3cc(Cl)cc(Cl)c3)C21 (centres unmarked) [Compound D3]	did not		40 to 250 nM											significantly more potency than Compound C17		more selective than Compounds C17 and D14	≤ 90%	convincing activity; also recorded: most potent of the three tested compounds	strong effect	slightly more potency than Compound D14
O=S1(=O)C=CC2ON=C(c3ccc(Cl)c(Cl)c3)C21 (centres unmarked) [Compound D11]	did not		40 to 250 nM											significantly more potency than Compound C17		more selective than Compounds C17 and D14	≤ 90%	convincing activity	strong effect	slightly more potency than Compound D14
